# Reference: US20260132129A1 (Genesis Therapeutics, Inc., priority 2022, published 2026)
# Molecular target: T1, PI3Kα H1047R (T47D cells) (Homo sapiens, UniProt P42336, H1047R)
# T1 construct: endogenous in cells; host or cells: T47D cells
# Experiment: PI3Kα cellular assay: pAKT HTRF in T47D cells after EGF stimulation
# Type: cell-based
# Details: for IC50: T47D cells (PI3Kα H1047R), pAKT S473 HTRF
# Summary of the method: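 pAKT read by HTRF in lysates of EGF-stimulated (20 ng/mL, 10 min) T47D H1047R cells. Before stimulation, serum-starved cells (16 h) received compound for 1 h at 37 °C, dosed from 10,000 nM down to 0.5 nM in 3-fold steps.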
# [1] = selectivity T47D (H1047R) over SKBR3 (WT), pAKT HTRF
# [2] = selectivity of T47D (H1047R) over SKBR3 (WT) pAKT IC50
# [3] = 1 hr compound, 20 ng/ml EGF 10 min
# T1 sequence (P42336 whole entry H1047R): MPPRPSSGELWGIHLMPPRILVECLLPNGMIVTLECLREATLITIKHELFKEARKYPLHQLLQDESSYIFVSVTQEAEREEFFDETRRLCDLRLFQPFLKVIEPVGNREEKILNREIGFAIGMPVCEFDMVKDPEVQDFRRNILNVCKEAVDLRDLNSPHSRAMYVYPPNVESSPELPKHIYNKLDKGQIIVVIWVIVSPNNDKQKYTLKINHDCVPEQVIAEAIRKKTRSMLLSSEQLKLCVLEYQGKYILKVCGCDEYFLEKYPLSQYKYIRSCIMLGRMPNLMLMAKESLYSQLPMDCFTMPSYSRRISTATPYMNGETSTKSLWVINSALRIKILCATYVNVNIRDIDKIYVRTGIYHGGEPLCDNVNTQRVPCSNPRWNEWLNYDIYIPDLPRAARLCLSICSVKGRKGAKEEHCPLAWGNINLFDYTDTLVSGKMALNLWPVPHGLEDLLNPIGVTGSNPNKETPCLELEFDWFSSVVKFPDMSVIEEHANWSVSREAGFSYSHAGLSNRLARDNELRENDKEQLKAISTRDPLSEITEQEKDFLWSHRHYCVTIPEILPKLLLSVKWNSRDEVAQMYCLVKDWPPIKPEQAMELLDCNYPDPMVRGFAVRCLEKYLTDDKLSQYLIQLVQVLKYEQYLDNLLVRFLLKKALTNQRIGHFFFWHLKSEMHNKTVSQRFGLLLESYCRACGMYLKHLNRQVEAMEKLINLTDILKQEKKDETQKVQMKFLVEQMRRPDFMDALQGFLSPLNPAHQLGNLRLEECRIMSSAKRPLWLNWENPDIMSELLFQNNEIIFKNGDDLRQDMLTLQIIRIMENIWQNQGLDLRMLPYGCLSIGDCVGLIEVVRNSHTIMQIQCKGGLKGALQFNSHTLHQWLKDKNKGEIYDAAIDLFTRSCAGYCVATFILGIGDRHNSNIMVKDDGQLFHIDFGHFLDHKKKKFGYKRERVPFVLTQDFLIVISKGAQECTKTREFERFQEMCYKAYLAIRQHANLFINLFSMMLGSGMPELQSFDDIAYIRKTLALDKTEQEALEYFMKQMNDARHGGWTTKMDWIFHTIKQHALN
# T1 sequence (P27986 whole entry partner): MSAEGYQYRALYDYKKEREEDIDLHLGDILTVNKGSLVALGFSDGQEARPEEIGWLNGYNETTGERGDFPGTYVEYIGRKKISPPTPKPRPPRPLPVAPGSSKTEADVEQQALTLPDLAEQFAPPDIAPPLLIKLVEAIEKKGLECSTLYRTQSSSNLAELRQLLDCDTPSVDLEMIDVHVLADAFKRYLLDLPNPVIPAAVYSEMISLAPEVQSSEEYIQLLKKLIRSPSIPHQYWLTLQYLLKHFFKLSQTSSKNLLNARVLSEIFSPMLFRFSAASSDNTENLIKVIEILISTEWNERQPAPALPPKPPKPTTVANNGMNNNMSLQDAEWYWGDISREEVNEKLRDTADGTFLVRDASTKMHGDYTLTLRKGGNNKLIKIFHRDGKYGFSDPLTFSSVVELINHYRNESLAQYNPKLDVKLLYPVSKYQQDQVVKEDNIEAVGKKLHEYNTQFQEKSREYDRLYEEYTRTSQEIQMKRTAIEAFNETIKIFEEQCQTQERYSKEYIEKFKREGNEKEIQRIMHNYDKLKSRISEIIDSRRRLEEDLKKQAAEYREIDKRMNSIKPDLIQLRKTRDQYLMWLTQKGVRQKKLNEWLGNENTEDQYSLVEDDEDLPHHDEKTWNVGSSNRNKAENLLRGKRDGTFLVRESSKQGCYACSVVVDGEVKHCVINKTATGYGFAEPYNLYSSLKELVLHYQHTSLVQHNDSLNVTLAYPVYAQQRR
IC50 (EGF stimulation),T47D pAKT S473 HTRF IC50 (H1047R): T47D (H1047R) selectivity over SKBR3 (WT) [1],T47D pAKT S473 HTRF IC50 (H1047R): T47D (H1047R) selectivity over SKBR3 (WT) [2],IC50 [3],Compound
100 to 500 nM,A (A denotes >20-fold),,,Cc1cc(C(C)Nc2ccccc2C(=O)O)c2nc(-c3cnc(C4CCOCC4)nc3)c(C)c(=O)n2c1 (stereo not drawn) [Compound 1272]
100 to 500 nM,,A (A denotes >20-fold),,Cc1cc(C(C)Nc2ccccc2C(=O)O)c2nc(N3CC4(CCOCC4)C3)c(C)c(=O)n2c1 (stereo not drawn) [Compound 904]
,B (B denotes 20-fold≥value>5-fold),,,Cc1cc([C@H](C)Nc2ccccc2C(=O)O)c2nc(-c3ccc(C4CCC(C)CC4)cc3)cc(=O)n2c1 (stereo partly drawn) [Compound 1341]
< 100 nM,,A (A denotes >20-fold),,Cc1cc([C@@H](C)Nc2ccccc2C(=O)O)c2nc(-c3ccc(F)c(C)c3)c(C)c(=O)n2c1 [Compound 1022]
,A (A denotes >20-fold),,,Cc1cc(C(C)Oc2ccccc2C2(O)CS(=O)(=O)C2)c2nc(-c3cccc(F)c3)c(C)c(=O)n2c1 (stereo not drawn) [Compound 1382]
> 2000 nM,,C (C denotes ≤5-fold),,Cc1cc([C@H](C)Nc2ccccc2C(=O)O)c2nc(-c3c(C)ccc4[nH]ncc34)cc(=O)n2c1 [Compound 814]
> 2000 nM,,C (C denotes ≤5-fold),,Cc1cc([C@@H](C)N[C@@H]2CCCC[C@@H]2C(=O)O)c2nc(N3CCOCC3)cc(=O)n2c1 [Compound 905]
100 to 500 nM,A (A denotes >20-fold),,,Cc1cc(C(C)Nc2ccccc2C(=O)O)c2nc(C#CC3CC3)c(C)c(=O)n2c1 (stereo not drawn) [Compound 1186]

# The next lines start with the molecule.
Compound,IC50 (EGF stimulation),T47D pAKT S473 HTRF IC50 (H1047R): T47D (H1047R) selectivity over SKBR3 (WT) [1],T47D pAKT S473 HTRF IC50 (H1047R): T47D (H1047R) selectivity over SKBR3 (WT) [2],IC50 [3]
Cc1cc(C(C)Nc2ccccc2C(=O)O)c2nc(-c3ccc4c(c(N)nn4C)c3C)c(C)c(=O)n2c1 (stereo not drawn) [Compound 706],500 to 2000 nM,,B (B denotes 20-fold≥value>5-fold),
Cc1cc([C@H](C)Nc2ccccc2CC(=O)O)c2nc(N3CCSCC3)cc(=O)n2c1 [Compound 286],,C (C denotes ≤5-fold),,> 2000 nM
Cc1cc(C(C)Nc2ccccc2C(=O)O)c2nc(-c3cccc(-c4nn[nH]n4)c3)cc(=O)n2c1 (stereo not drawn) [Compound 303],,C (C denotes ≤5-fold),,> 2000 nM
Cc1cc([C@@H](C)Nc2ccccc2C(=O)O)c2nc(-c3cccc(C(F)F)c3)c(C)c(=O)n2c1 [Compound 1077],500 to 2000 nM,B (B denotes 20-fold≥value>5-fold),,
Cc1cc([C@H](C)Nc2ccccc2C(=O)O)c2nc(-c3cnc(C#N)c(Cl)c3)c(C)c(=O)n2c1 [Compound 1084],> 2000 nM,C (C denotes ≤5-fold),,
Cc1cc([C@H](C)Nc2ccccc2C(=O)O)c2nc(N3Cc4ccccc4[C@H]3C)cc(=O)n2c1 [Compound 654],500 to 2000 nM,,B (B denotes 20-fold≥value>5-fold),
CNC1=NC2C=C(c3cc(=O)n4cc(C)cc(C(C)Nc5ccccc5C(=O)O)c4n3)C=CC2=C1 (stereo not drawn) [Compound 577],,A (A denotes >20-fold),,100 to 500 nM
Cc1cc([C@H](C)Nc2ccccc2C(=O)O)c2nc(-c3ccc4[nH]c(=O)oc4c3)cc(=O)n2c1 [Compound 542],,C (C denotes ≤5-fold),,> 2000 nM
Cc1cc([C@@H](C)Nc2ccccc2C(=O)O)c2nc(N3C[C@@H](C)O[C@@H](C)C3)cc(=O)n2c1 [Compound 319],,A (A denotes >20-fold),,100 to 500 nM
Cc1cc([C@@H](C)Nc2cnncc2C(=O)O)c2nc(N3CCOCC3)cc(=O)n2c1 [Compound 375],,C (C denotes ≤5-fold),,> 2000 nM
Cc1cc(C(C)Nc2ccccc2S(N)(=O)=O)c2nc(-c3cc(C)c4oc(=O)[nH]c4c3)cc(=O)n2c1 (stereo not drawn) [Compound 571],,C (C denotes ≤5-fold),,> 2000 nM
